Source: publication PMC4108065, “Inflammation and pancreatic cancer: molecular and functional interactions between S100A8, S100A9, NT-S100A8 and TGFβ1” (Cell Communication and Signaling : CCS, 2014)

Columns and labels:
Type in all cases: cell-based, human
[1] = tested on: BxPC3 [Ca2+]i; experiment: Intracellular calcium, fluo-4 epifluorescence, BxPC3; conditions: for alterations in [Ca2+]i: BxPC3, single treatment, monitored for 500 seconds, 0.02 ng/ml TGFβ1, 10 nM S100A8, 10 nM S100A9
Method: BxPC3 and MiaPaCa2 cells, seeded (80 × 10^3 cells) on coverslips that had been inserted within each well of six well culture plates, were kept in their respective complete media for 24 hours. Coverslips were then incubated for 10 min at 37°C with 3 μM fluo-4 AM (Invitrogen S.R.L.) in an imaging buffer containing 137 mM NaCl, 5 mM KCl, 1.2 mM MgCl2, 0.44 mM KH2PO4, 4.2 mM NaHCO3, 5 mM glucose, and 20 mM HEPES pH 7.4. The cells were carefully washed with the imaging buffer after its removal. Calcium oscillations were then analyzed by means of an inverted epifluorescence microscope equipped with a top stage incubator (Tokai Hit INU-F1, Tokai Hit, Shizuoka-Ken, Japan) in order to keep cells in the optimal culturing environment. As an illumination source, we used a mercury arc discharge lamp and selected excitation and emission wavelengths with an FITC filter cube (EX 465–495 DM505 EM 515–555 nm). Use was made of an 60X1.45NA objective (Nikon Instruments S.P.A., Firenze, Italy) and, in order to minimize phototoxicity and photobleaching, a back-thinned electron multiplied CCD camera C9100-13 Imagem (Hamamatsu Photonics Italia S.R.L., Milano, Italy). After the first minute, required to achieve optimal culture conditions, intracellular fluorescence was continuously monitored (3 frames/sec) for 12 min. In all experiments, […], the cells were maintained in imaging buffer for the first 2 minutes, after which they were stimulated with 10 nM S100A8, 10 nM S100A9 and 50 nM NT-S100A8, alone or in combination with 0.02 ng/ml TGFβ1. For all stimuli, additions were made directly to the microscope chamber without interrupting the recording. The fluorescence signal was quantified by measuring the mean pixel value of a manually selected cellular area for each frame of the image stack using the HCimage system (Hamamatsu Photonics Italia S.R.L.). For all the experimental conditions, at least 3 independents sets of experiments were performed.

[2] = tested on: BxPC3 N-Cadherin; experiment: N-cadherin immunocytochemistry, BxPC3; conditions: vs untreated cells
Method: In order to investigate immunocytochemical reactions, control and stimulated cells were formalin-fixed and paraffin embedded before obtaining […] sections from each cell block. All immunocytochemical staining was performed automatically (Bondt—maX, Menarini, Florence, Italy) with primary antibodies: E-cadherin (DakoCytomation, Glostrup, Denmark) (1:200), N-cadherin (DakoCytomation) (1:100), Twist1 (Novocastra, Newcastle-upon-Tyne, UK)(1:600). Sections were then lightly counterstained with hematoxylin. E-cadherin and N-cadherin immunoreactions were defined as immunoreactions detectable in the membrane while Twist was defined as a positive nuclear staining. At least three independent sets of experiments were performed in each experimental condition.

[3] = tested on: Capan1; experiment: XTT cell viability assay, Capan1; conditions: 48 hours, TGFβ1 0.02 ng/ml, NT-S100A8 50 nM, S100A8 10 nM, S100A9 10 nM, alone or combined, at least three independent experiments in quadruplicate
Method: (§1) BxPC3, Capan1, MiaPaCa2, Panc1 and BxPC3-SMAD4+ cells were seeded (2000 cells per well) in 96-well cell culture plates and cultured in complete media for 24 hours. Media were then replaced with fresh cell culture media in absence (control) or in presence of TGFβ1 (0.02 ng/ml) and NT-S100A8 (50 nM), alone or combined or in absence (control) or in presence of TGFβ1 (0.02 ng/ml), S100A8 (10 nM) and S100A9 (10 nM) alone or combined. Cell growth was assessed after 48 hours using the XTT cell viability test (Roche, Milano, Italy). At least three independent experiements, each made in quadruplicate, were run. The results were expressed as percentage with respect to the median Abs450nm of control cells run in the same experimental set.

[4] = tested on: BxPC3; experiment: XTT cell viability assay, BxPC3; conditions: 48 hours, TGFβ1 0.02 ng/ml, NT-S100A8 50 nM, S100A8 10 nM, S100A9 10 nM, alone or combined, at least three independent experiments in quadruplicate
Method: as §1

[5] = tested on: Panc1; experiment: XTT cell viability assay, Panc1; conditions: 48 hours, TGFβ1 0.02 ng/ml, NT-S100A8 50 nM, S100A8 10 nM, S100A9 10 nM, alone or combined, at least three independent experiments in quadruplicate
Method: as §1

[6] = tested on: MiaPaCa2; experiment: XTT cell viability assay, MiaPaCa2; conditions: 48 hours, TGFβ1 0.02 ng/ml, NT-S100A8 50 nM, S100A8 10 nM, S100A9 10 nM, alone or combined, at least three independent experiments in quadruplicate
Method: as §1

Substance | effect of TGFβ1 on the induced [Ca2+]i oscillations ([1]; BxPC3, combination with 0.02 ng/ml TGFβ1) | N-Cadherin membranous immunostaining [2] | alterations in [Ca2+]i [1] | Capan1 % to Control Mean± SEM [3] | BxPC3 % to Control Mean±SEM [4] | Panc1 % to Control Mean± SEM [5] | MiaPaCa2 % to Control Mean± SEM [6]
NT-S100A8: 14 N-terminal aminoacid peptide of S100A8, isolated from PDAC tissues (MLTELEKALNSIID; UniProt P05109 1-14, looked up, fragment) | synergized and accelerated by TGFβ1 | less marked than in control cells |  |  |  |  | 
S100A8: inflammatory calcium binding protein S100A8 (ProSpec-Tany TechnoGene) |  | less marked than in control cells | did not determine evident alterations in [Ca^2+]i | 96.22 ± 2.91 % to Control | 111.45±5.92 % to Control | 93.16 ± 3.65 % to Control | 102.13± 4.93 % to Control
S100A9: inflammatory calcium binding protein S100A9, S100A8 binding partner |  | less marked than in control cells | did not determine evident alterations in [Ca^2+]i | 103.07 ± 2.90 % to Control | 103.53± 5.18 % to Control | 96.72± 4.43 % to Control | 104.38± 4.09 % to Control
TGFβ1: transforming growth factor beta 1 (ProSpec-Tany TechnoGene) |  | less marked than in control cells | did not determine evident alterations in [Ca^2+]i | 104.31 ± 2.68 % to Control | 96.85 ± 5.02 % to Control | 88.31 ± 3.68 % to Control | 102.11 ± 4.65 % to Control
